Reference: PubChem BioAssay AID179 (DTP/NCI, 2004)
The source made the active and inactive calls.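 Rule for the calls: active = compounds giving half or more protection of infected cells from virus-caused growth loss, again on retest; inactive = the rest.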 Where a SMILES comes first, the peptide text is derived from it. The star is where a group is joined. Cbz = O=C(OCc1ccccc1)*; NHNH2 = NN*

System: CEM cells HIV-1 protection, formazan growth assay
Assay: NCI AIDS Antiviral Assay
Conditions: for IC50: measured here: growth of uninfected CEM cells
Outline: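 Human CEM cells, uninfected and HIV-1-infected, exposed to five drug concentrations; growth measured by soluble formazan assay and scored as percent protection from infection, with protecting compounds retested.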

SMILES	EC50	IC50	outcome
CC(C)/C(Cl)=N/OC(=O)Nc1ccc(F)c(Cl)c1	> 20 µM	3.31 µM	–
N#CC1(C#N)NC(c2ccsc2)C(C#N)(C#N)NC1c1ccsc1 (configuration not stated)	> 200 µM	115 µM	–
CNNC(=NS(=O)(=O)c1cc(C#N)c(NNC)cc1S)NNC	–	–	inactive
CCN(Cc1ccccc1)c1ccc(/C=C/c2nccc3ccccc23)cc1	> 14.5 µM	14.1 µM	–
N=c1c2ccccc2sc2nc3ccccc3n12	> 52.5 µM	> 52.5 µM	–
Cc1cc(S(=O)(=O)n2ccnc2Oc2ccccc2N)c(SSc2cc(Cl)c(C)cc2S(=O)(=O)n2ccnc2Oc2ccccc2N)cc1Cl	> 100 µM	19.5 µM	–
O=c1c(NO)c([N+](=O)[O-])cnn1-c1ccccc1	> 89.1 µM	0.316 µM	–
CCN(CC)Cc1cc(Nc2c3ccccc3nc3c4ccccc4n(C)c23)cc(CN(CC)CC)c1O	> 155 µM	3.09 µM	–
COc1cc(Nc2cnc3cc(N)ccc3n2)cc(OC)c1OC	> 200 µM	> 200 µM	–
C/C(=N\NC(=O)C[n+]1ccccc1)c1sc(-c2nc(C)c(/C(C)=N/NC(=O)C[n+]3ccccc3)s2)nc1C	> 30.2 µM	> 30.2 µM	–
NNC(=O)C(CCC(=O)O)NC(=O)C(CCC(=O)O)NC(=O)C(CCC(=O)O)NC(=O)CNC(=O)CNC(=O)OCc1ccccc1 (configuration not stated) (Cbz-GGEEE-NHNH2; configuration not given here)	> 200 µM	> 200 µM	–
CC(Cl)CC(=O)OCC1CCCN2CCCCC12 (configuration not stated)	> 200 µM	> 200 µM	–
CS1(=O)=NC(=NC#N)c2ccccc21 (configuration not stated)	–	–	inactive
O=C(O)C1CSC2c3ccccc3C(=O)N12 (configuration not stated)	> 200 µM	> 200 µM	–
NC(CSP(=O)(O)O)=NCC12CC3CC(CC(C3)C1)C2	–	–	inactive
Cc1c(C(=O)O)n2c(=S)[nH]nc2c2ccccc12	> 200 µM	> 200 µM	–
CCCCCCC(=O)c1c(O)c2ccccc2oc1=O	> 200 µM	29.5 µM	–
CC(C)(C)C1CCC2(CC1)CCN(CCCN1CCOCC1)CC2	> 55 µM	12.3 µM	–
COc1cc2cc[n+](C)c(Cc3ccccc3)c2cc1OC	> 200 µM	166 µM	–
O=[N+]([O-])c1ccc(O)c(CN(Cc2ccccc2)Cc2c(O)ccc3ccccc23)c1	> 200 µM	> 200 µM	–
O=c1c(C=Nc2ccc([N+](=O)[O-])cc2)c(O)n(-c2ccccc2)c(=O)n1-c1ccccc1	> 200 µM	21.4 µM	–
CCOC(=O)c1cnc(NC)n2nc(-c3ccccc3)nc12	–	–	inactive

SMILES	EC50	IC50	outcome
COC(=O)[C@]1(C)CCC[C@]2(C)c3ccc(C(C)C)cc3C(=O)C[C@@H]12	> 200 µM	31.6 µM	–
CC12CC(OC1=O)C(=O)c1ccccc12 (configuration not stated)	> 468 µM	209 µM	–
Cc1ccccc1N1C(=O)/C(=C/c2ccc(N(CCC#N)CCC#N)cc2)N=C1c1cc([N+](=O)[O-])ccc1Cl	> 9.77 µM	> 9.77 µM	–
CC1Cc2cc(OCc3ccccc3)cc(OCc3ccccc3)c2[C@H](C)N1Cc1ccccc1 (some centres not stated)	> 200 µM	14.5 µM	–
Cc1cn(C2CC(O)C(CN(O)CCC3CC(n4cc(C)c(=O)[nH]c4=O)OC3CO)O2)c(=O)[nH]c1=O (configuration not stated)	> 200 µM	> 200 µM	–
COc1cc(OC)c2nc(C)c3c(c2c1)NCC3	> 200 µM	3.98 µM	–
COc1ccc2c(c1OC)C(=O)OC2c1c2c(c(OC)c3c1OCO3)C(C1OC(=O)c3c1ccc(OC)c3OC)N(C)CC2 (configuration not stated)	–	–	inactive
CC(=O)CCS(=O)(=O)O	> 200 µM	> 200 µM	–
CC1=NN(c2ccccc2)C(=O)C1N=Nc1ccc(S(=O)(=O)Nc2ncccn2)cc1 (configuration not stated)	> 200 µM	36.3 µM	–
CCOC(=O)c1ccc(CSc2ccc(Cl)cc2)cc1	> 4.68 µM	> 4.68 µM	–
NC(=O)CCC(NC(=O)C(F)(F)F)C(=O)O (configuration not stated)	–	–	inactive
COC(=O)C[CH](C(=O)OC)[Ge]([CH3])([CH3])[S]c1ccccc1 (configuration not stated)	> 100 µM	18.2 µM	–
Cn1c(=O)n(C2(C)CSC2)c2ccccc21	> 562 µM	178 µM	–
O=C(Nc1ccccc1)NC(CSSCC(NC(=O)Nc1ccccc1)C(=O)O)C(=O)O (configuration not stated)	> 200 µM	7.24 µM	–
N#CC1(O)CCCCCCCCCCC1	> 200 µM	> 200 µM	–
O=C1C(O)C(O)C(O)C(O)C1O (configuration not stated)	> 200 µM	> 200 µM	–
Cc1cc(O)cc2oc(=O)c3c(O)cc(O)cc3c12	> 479 µM	12.6 µM	–
c1ccc(P(=Nc2ccccc2N=P(c2ccccc2)(c2ccccc2)c2ccccc2)(c2ccccc2)c2ccccc2)cc1	–	–	inactive
Fc1ccccc1C1SCc2nc3ncccc3n21 (configuration not stated)	> 95.5 µM	> 95.5 µM	–
CCCCCCCCCCCCCCCC(=O)OCC1OC(OC)C2NP(=O)(N(CCCl)CCCl)OC1C2O (configuration not stated)	> 8.51 µM	0.155 µM	–
CC1OC2=N[C@@H]1C(=O)N[C@@H](C(C)C)C1=N[C@H](C(=O)N[C@@H](C(C)C)C3=N[C@H](C(=O)N[C@@H](C(C)C)C4=N[C@H](C(=O)N[C@H]2C(C)C)C(C)O4)C(C)O3)C(C)O1 (some centres not stated)	> 200 µM	> 200 µM	–
O=C1Nc2cc(Cl)ccc2N=CC1NC(=O)C(c1ccccc1)c1ccccc1Cl (configuration not stated)	> 295 µM	219 µM	–

SMILES	EC50	IC50	outcome
CC1(O)C2(c3ccccc3)CCC[N+]1(C)CC2 (configuration not stated)	–	–	inactive
COCC(C)(COP(=O)(N1CCOCC1)N1CCOCC1)CC(C)COP(=O)(N1CCOCC1)N1CCOCC1 (configuration not stated)	–	–	inactive
C[Si](C)(C)C1=C2C(=O)c3ccccc3C(=O)C2=C([Si](C)(C)C)[C@@H]2CCCC[C@H]12	> 50.1 µM	> 50.1 µM	–
CC1(C)OC2C3CCC(C)(C3)C2(c2ccccc2)O1 (configuration not stated)	> 87.1 µM	> 87.1 µM	–
CCOC(=O)CCCc1cc(=O)c2c(C)c3[nH]c4ccc(Cl)cc4c3c(C)c2[nH]1	> 200 µM	34.7 µM	–
O=C(O)c1cc(Cl)n[nH]c1=O	> 1410 µM	> 1410 µM	–
C[C@H]1CCC2C(OC(=O)[C@@H]2CN(C)C)[C@]2(C)C(=O)C=CC12O (some centres not stated)	–	–	inactive
CSc1nc(C)c(C(=O)CCN2CCN(c3ccccn3)CC2)s1	> 87.1 µM	4.37 µM	–
O=C(Cn1cc(-c2ccccc2)nn1)NC1CCCC1	> 200 µM	> 200 µM	–
NC(N)=NS(=O)(=O)c1ccc(NC(=O)c2cccc3c(Nc4ccc(S(=O)(=O)N=C(N)N)cc4)c4ccc(Cl)cc4nc23)cc1	> 53.7 µM	> 53.7 µM	–
Fc1c(F)c(F)c(S)c(F)c1F	–	–	active
[N-]=[N+]=NC1CC(n2cc(Cc3ccccc3)c(N)nc2=O)OC1CO (configuration not stated)	> 724 µM	> 724 µM	–
OC12CCC[N+]1(Cc1ccccc1)CCC2 (configuration not stated)	> 794 µM	708 µM	–
COC(=O)c1ccc(CCc2cc(O)c(Br)cc2O)cc1	> 200 µM	10 µM	–
CC(O[Si](C)(C)C)C1C=CC(C)n2c(=O)n(-c3ccccc3)c(=O)n21 (configuration not stated)	–	–	inactive
COc1cc(/C=C2\N=C(c3ccccc3)OC2=O)cc(OC)c1OC	> 21.4 µM	> 21.4 µM	–
CC(=O)Nc1ncc(Sc2ccc([N+](=O)[O-])cc2)s1	> 200 µM	> 200 µM	–
NCC1Nc2ccccc2[C@@H](O)C1O (some centres not stated)	> 933 µM	> 933 µM	–
O=C(Cc1ccccc1)NNc1nc(NNC(=O)c2ccncc2)nc(Nc2ccc(Cl)cc2)n1	> 100 µM	> 100 µM	–
CC(=O)ON1CCC(n2cc(C)c(=O)[nH]c2=O)C1 (configuration not stated)	> 200 µM	> 200 µM	–
CCOC(=O)c1cnc2c(ccc3[nH]cccc32)c1=O	> 26.9 µM	> 26.9 µM	–
Cc1ccc(S(=O)(=O)NCCSCCNS(=O)(=O)c2ccc(C)cc2)cc1	> 575 µM	> 575 µM	–

SMILES	EC50	IC50	outcome
O=C(CCCN1CCC2(CC1)C(=O)NCN2c1ccccc1)c1ccccc1	> 200 µM	34.7 µM	–
C=CC[C@@]1(OC(C)=O)C(=O)C(=O)OC1C1COC(C)(C)O1 (some centres not stated)	> 200 µM	11.2 µM	–
CCOCN1COCN=C1NC#N	> 490 µM	> 490 µM	–
CC1(C)OCC2OC3([C@@H]4OC(C)(C)O[C@H]4CO)OC(C)(C)OC3C2O1 (some centres not stated)	> 200 µM	> 200 µM	–
CC(=O)OC12c3ccccc3-c3ccccc3C1C1C(=O)OC(=O)C12 (configuration not stated)	> 282 µM	> 282 µM	–
CC12CC3CC(C)(C1)CC(SCCCCCN=C(N)CSSCC(N)=NCCCCCSC14CC5CC(C)(CC(C)(C5)C1)C4)(C3)C2	> 200 µM	26.9 µM	–
Clc1ccc(-c2cc3nc4ccccc4nc3o2)cc1	> 100 µM	> 100 µM	–
Cc1noc2cccc(OCc3ccccc3)c12	> 30.2 µM	> 30.2 µM	–
CC(C)(C)OC(=O)NCC(=O)NC1CC=CCC1NC(=O)CNC(=O)OC(C)(C)C (configuration not stated)	> 200 µM	> 200 µM	–
CC1(C)[C@@H]2CC[C@]13CC(=O)O[C@@H]3C2	> 724 µM	> 724 µM	–
CCOC(=O)C(C)(C)Oc1ccc2c(=O)cc(-c3ccccc3)oc2c1	> 53.7 µM	36.3 µM	–
CC1=C(OCCCl)C2CC1C1C(=O)N(c3ccccc3)C(=O)C21 (configuration not stated)	> 389 µM	> 389 µM	–
CCOC(=O)C1=NN(c2ccccc2)C(=O)/C1=C\N1CCNC1=S	> 135 µM	> 100 µM	–
c1ccc(CN2CCC(=NN3CCCCC3)CC2)cc1	> 200 µM	89.1 µM	–
CCOC(=O)c1c2nc3ccccc3sc-2c(C(=O)OCC)c1C(=O)OCC	> 20 µM	0.977 µM	–
Cc1cc(C)c(C2=NO[C@@H]3C(=O)N(c4ccc(Cc5ccc(N6C(=O)[C@H]7C(c8c(C)cc(C)cc8C)=NO[C@H]7C6=O)cc5)cc4)C(=O)[C@H]23)c(C)c1	> 7.59 µM	> 7.59 µM	–
NC(N)=NCCN1CCCCCc2ccccc21	> 200 µM	20.9 µM	–
CC[P+]1(c2ccccc2)[C@@H](C)CC[C@@H]1C	> 200 µM	91.2 µM	–
O=C(N/C(=C\c1ccc(Cl)cc1)c1nc2ccccc2[nH]1)c1ccccc1	> 69.2 µM	58.9 µM	–
CC(c1ccccc1)n1cncc1C(=O)NN1CCN(C)CC1 (configuration not stated)	> 200 µM	> 200 µM	–
COC(=O)C1=C(C(=O)OC)C(Cc2ccccc2)(OO)OC1=O (configuration not stated)	> 200 µM	0.955 µM	–
